Experimental data reported in ChEMBL document CHEMBL3593232, “Ring-substituted 8-hydroxyquinoline-2-carboxanilides as potential antimycobacterial agents” (Bioorg Med Chem, 2015).
Values after ≈ are worked out from the molar mass of the structure shown.

Tests used:
[1] = test system: Mycobacterium tuberculosis; assay: microbe, parasite or virus in culture; conditions: H37Ra ATCC 25177, 168 h
Description: Antimycobacterial activity against Mycobacterium tuberculosis H37Ra ATCC 25177 assessed as reduction in bacterial growth incubated at 37 degC for 7 days by alamar blue dye based assay

[2] = test system: THP-1; assay: Cytotoxicity against human THP1 cells assessed as reduction in cell viability incubated for 24 hrs by WST1 dye based assay; conditions: THP-1, 24 h
[3] = test system: Mycobacterium avium subsp. paratuberculosis; format: functional; conditions: isolate CIT03, 264 h
[4] = test system: Mycobacterium avium complex sp.; format: functional; conditions: isolate CIT19/06, 120 h
[5] = Lipophilicity assessed as capacity factor logK of the compound by HPLC method; format: physicochemical
[6] = test system: Mycobacterium tuberculosis; format: functional, H37Ra ATCC 25177

O=C(Nc1ccccc1)c1ccc2cccc(O)c2n1
MIC90 [1]: 30 µM (≈ 7.93 µg/mL) | IC50 [2]: > 30 µM | MIC90 [3]: 30 µM (≈ 7.93 µg/mL) | MIC90 [4]: 30 µM (≈ 7.93 µg/mL) | log K [5]: 0.76

O=C(Nc1ccc(F)cc1)c1ccc2cccc(O)c2n1
MIC90 [1]: 53 µM (≈ 15 µg/mL) | IC50 [2]: > 30 µM | MIC90 [3]: 53 µM (≈ 15 µg/mL) | MIC90 [4]: 53 µM (≈ 15 µg/mL) | log K [5]: 0.8598

COc1ccccc1NC(=O)c1ccc2cccc(O)c2n1
MIC90 [1]: 27 µM (≈ 7.95 µg/mL) | IC50 [2]: > 30 µM | MIC90 [3]: 51 µM (≈ 15 µg/mL) | MIC90 [4]: 51 µM (≈ 15 µg/mL) | log K [5]: 0.7935

COc1cccc(NC(=O)c2ccc3cccc(O)c3n2)c1
MIC90 [1]: 27 µM (≈ 7.95 µg/mL) | Activity [6]: 30.9% | IC50 [2]: > 30 µM | MIC90 [3]: 27 µM (≈ 7.95 µg/mL) | MIC90 [4]: 27 µM (≈ 7.95 µg/mL) | log K [5]: 0.8164

COc1ccc(NC(=O)c2ccc3cccc(O)c3n2)cc1
MIC90 [1]: 849 µM (≈ 250 µg/mL) | IC50 [2]: > 30 µM | MIC90 [3]: 849 µM (≈ 250 µg/mL) | MIC90 [4]: 425 µM (≈ 125 µg/mL) | log K [5]: 0.7129

Cc1ccccc1NC(=O)c1ccc2cccc(O)c2n1
MIC90 [1]: 29 µM (≈ 8.07 µg/mL) | IC50 [2]: > 30 µM | MIC90 [3]: 29 µM (≈ 8.07 µg/mL) | MIC90 [4]: 54 µM (≈ 15 µg/mL) | log K [5]: 0.6944

Cc1cccc(NC(=O)c2ccc3cccc(O)c3n2)c1
MIC90 [1]: 29 µM (≈ 8.07 µg/mL) | Activity [6]: 66.4% | IC50 [2]: > 30 µM | MIC90 [3]: 29 µM (≈ 8.07 µg/mL) | MIC90 [4]: 29 µM (≈ 8.07 µg/mL) | log K [5]: 0.9686

Cc1ccc(NC(=O)c2ccc3cccc(O)c3n2)cc1
MIC90 [1]: 29 µM (≈ 8.07 µg/mL) | IC50 [2]: > 30 µM | MIC90 [3]: 29 µM (≈ 8.07 µg/mL) | MIC90 [4]: 54 µM (≈ 15 µg/mL) | log K [5]: 0.9521

O=C(Nc1ccccc1F)c1ccc2cccc(O)c2n1
MIC90 [1]: 28 µM (≈ 7.9 µg/mL) | Activity [6]: 26.9% | IC50 [2]: > 30 µM | MIC90 [3]: 28 µM (≈ 7.9 µg/mL) | MIC90 [4]: 53 µM (≈ 15 µg/mL) | log K [5]: 0.6806

O=C(Nc1cccc(F)c1)c1ccc2cccc(O)c2n1
MIC90 [1]: 53 µM (≈ 15 µg/mL) | IC50 [2]: > 30 µM | MIC90 [3]: 53 µM (≈ 15 µg/mL) | MIC90 [4]: 53 µM (≈ 15 µg/mL) | log K [5]: 0.942

O=C(Nc1ccccc1Cl)c1ccc2cccc(O)c2n1
MIC90 [1]: 27 µM (≈ 8.07 µg/mL) | Activity [6]: 21.4% | IC50 [2]: > 30 µM | MIC90 [3]: 27 µM (≈ 8.07 µg/mL) | MIC90 [4]: 837 µM (≈ 250 µg/mL) | log K [5]: 0.9566

O=C(Nc1cccc(Cl)c1)c1ccc2cccc(O)c2n1
MIC90 [1]: 50 µM (≈ 14.9 µg/mL) | IC50 [2]: > 30 µM | MIC90 [3]: 50 µM (≈ 14.9 µg/mL) | MIC90 [4]: 50 µM (≈ 14.9 µg/mL) | log K [5]: 1.1718

O=C(Nc1ccc(Cl)cc1)c1ccc2cccc(O)c2n1
MIC90 [1]: 837 µM (≈ 250 µg/mL) | IC50 [2]: > 30 µM | MIC90 [3]: 837 µM (≈ 250 µg/mL) | MIC90 [4]: 50 µM (≈ 14.9 µg/mL) | log K [5]: 1.1543

O=C(Nc1ccccc1Br)c1ccc2cccc(O)c2n1
MIC90 [1]: 23 µM (≈ 7.89 µg/mL) | Activity [6]: 26.9% | IC50 [2]: > 30 µM | MIC90 [3]: 23 µM (≈ 7.89 µg/mL) | MIC90 [4]: 729 µM (≈ 250 µg/mL) | log K [5]: 1.0536

O=C(Nc1cccc(Br)c1)c1ccc2cccc(O)c2n1
MIC90 [1]: 44 µM (≈ 15.1 µg/mL) | IC50 [2]: > 30 µM | MIC90 [3]: 44 µM (≈ 15.1 µg/mL) | MIC90 [4]: 44 µM (≈ 15.1 µg/mL) | log K [5]: 1.2357

O=C(Nc1ccc(Br)cc1)c1ccc2cccc(O)c2n1
MIC90 [1]: 729 µM (≈ 250 µg/mL) | IC50 [2]: > 30 µM | MIC90 [3]: 729 µM (≈ 250 µg/mL) | MIC90 [4]: 44 µM (≈ 15.1 µg/mL) | log K [5]: 1.2347

O=C(Nc1ccccc1C(F)(F)F)c1ccc2cccc(O)c2n1
MIC90 [1]: 24 µM (≈ 7.97 µg/mL) | Activity [6]: 53.4% | IC50 [2]: > 30 µM | MIC90 [3]: 24 µM (≈ 7.97 µg/mL) | MIC90 [4]: 752 µM (≈ 250 µg/mL) | log K [5]: 0.9147

O=C(Nc1cccc(C(F)(F)F)c1)c1ccc2cccc(O)c2n1
MIC90 [1]: 24 µM (≈ 7.97 µg/mL) | Activity [6]: 18.8% | IC50 [2]: > 30 µM | MIC90 [3]: 24 µM (≈ 7.97 µg/mL) | MIC90 [4]: 24 µM (≈ 7.97 µg/mL) | log K [5]: 1.3206

O=C(Nc1ccc(C(F)(F)F)cc1)c1ccc2cccc(O)c2n1
MIC90 [1]: 24 µM (≈ 7.97 µg/mL) | Activity [6]: 33.1% | IC50 [2]: > 30 µM | MIC90 [3]: 24 µM (≈ 7.97 µg/mL) | MIC90 [4]: 24 µM (≈ 7.97 µg/mL) | log K [5]: 1.3653

O=C(Nc1ccccc1[N+](=O)[O-])c1ccc2cccc(O)c2n1
MIC90 [1]: 97 µM (≈ 30 µg/mL) | IC50 [2]: > 30 µM | MIC90 [3]: 97 µM (≈ 30 µg/mL) | MIC90 [4]: 808 µM (≈ 250 µg/mL) | log K [5]: 1.1277

O=C(Nc1cccc([N+](=O)[O-])c1)c1ccc2cccc(O)c2n1
MIC90 [1]: 26 µM (≈ 8.04 µg/mL) | Activity [6]: 7% | IC50 [2]: > 30 µM | MIC90 [3]: 808 µM (≈ 250 µg/mL) | MIC90 [4]: 808 µM (≈ 250 µg/mL) | log K [5]: 0.9845

O=C(Nc1ccc([N+](=O)[O-])cc1)c1ccc2cccc(O)c2n1
MIC90 [1]: 26 µM (≈ 8.04 µg/mL) | Activity [6]: 17.3% | IC50 [2]: > 30 µM | MIC90 [3]: 404 µM (≈ 125 µg/mL) | MIC90 [4]: 808 µM (≈ 250 µg/mL) | log K [5]: 1.0495

CO[C@H]1/C=C/O[C@@]2(C)Oc3c(C)c(O)c4c(O)c(c(/C=N/N5CCN(C)CC5)c(O)c4c3C2=O)NC(=O)/C(C)=C\C=C\[C@H](C)[C@H](O)[C@@H](C)[C@@H](O)[C@@H](C)[C@H](OC(C)=O)[C@@H]1C [RIFAMPIN]
MIC90 [1]: 10 µM (≈ 8.23 µg/mL) | MIC90 [3]: 109 µM (≈ 89.7 µg/mL) | MIC90 [4]: 10 µM (≈ 8.23 µg/mL)
